Test results as given in patent US12378186B2, “Inhibitors of meprin α and β” (VIVORYON THERAPEUTICS N.V., priority 2016, dated 2025).
Like-named read-outs stand apart in the source and are kept apart here.

Columns and labels:
hMeprin α = target: T1, hMeprin α (Homo sapiens, UniProt Q16819); experiment: biochemical; assay type: biochemical
T1 sequence (Q16819 66-746): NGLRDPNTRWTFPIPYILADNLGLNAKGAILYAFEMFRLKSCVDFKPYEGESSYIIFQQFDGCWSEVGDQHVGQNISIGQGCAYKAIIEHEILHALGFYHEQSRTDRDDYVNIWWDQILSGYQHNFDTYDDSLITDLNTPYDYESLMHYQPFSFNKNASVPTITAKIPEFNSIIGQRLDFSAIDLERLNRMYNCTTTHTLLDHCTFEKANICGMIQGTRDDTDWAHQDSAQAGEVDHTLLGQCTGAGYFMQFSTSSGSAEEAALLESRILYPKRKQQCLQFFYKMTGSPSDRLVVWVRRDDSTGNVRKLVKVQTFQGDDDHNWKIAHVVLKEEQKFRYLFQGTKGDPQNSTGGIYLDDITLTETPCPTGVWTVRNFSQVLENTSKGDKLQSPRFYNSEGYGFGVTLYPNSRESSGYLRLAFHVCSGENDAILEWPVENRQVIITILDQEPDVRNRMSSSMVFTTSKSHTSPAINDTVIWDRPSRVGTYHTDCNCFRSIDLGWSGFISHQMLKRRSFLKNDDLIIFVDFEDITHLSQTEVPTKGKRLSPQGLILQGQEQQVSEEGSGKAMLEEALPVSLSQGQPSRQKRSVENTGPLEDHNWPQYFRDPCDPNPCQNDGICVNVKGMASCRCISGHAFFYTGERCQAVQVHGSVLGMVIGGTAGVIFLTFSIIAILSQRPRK
Protocol: (§1) A typical assay of 250 μl total volume measured in black 96 well plates consisted of 100 μl buffer, 50 μl enzyme at a final concentration of 5e-8 M to 5e-9 M, 50 μl substrate (0.15 to 80 μM, in buffer, 0.5% DMSO) and 50 μl inhibitor solution (in buffer, 1% DMSO). In case of 125 μl assay volume (black 96 half area well plates) all volumes were cut in half. Enzymatic activity of ADAMs was measured in 384 well plates with 60 μl total assay volume consisting of 20 μl inhibitor, 20 μl buffer, 10 μl enzyme and 10 μl substrate.
(§2) Ki values were assessed combining 4 substrate concentrations (5-40 μM) with at least 5 inhibitor concentrations. […] Initial velocities were determined and converted into concentration units applying a standard curve obtained after complete conversion of different substrate concentrations under assay conditions. All measurements were performed using a fluorescence plate reader (FLUOstar OPTIMA, BMG Labtech) at 30° C. The kinetic parameters were determined at least in duplicates on separate days. The excitation/emission wavelength was 340/420 nm. The kinetic data was evaluated using GraFit software (version 7.0.3, Erithacus Software).
(§3) The following compounds according to the present invention were synthesized using the above general procedures. IC50 refers to the average IC50 values measured as described above, SD (IC50) refers to the standard deviation of the average IC50 values, Ki refers to the average K; values measured as described above, and SD (Ki) to the standard deviation of the average Ki values.

hMeprin β = target: T2, hMeprin β (Homo sapiens, UniProt Q16820); experiment: Enzymatic assay, cleavage of internally quenched peptide substrate, hMeprin β; assay type: biochemical
T2 sequence (Q16820 62-701): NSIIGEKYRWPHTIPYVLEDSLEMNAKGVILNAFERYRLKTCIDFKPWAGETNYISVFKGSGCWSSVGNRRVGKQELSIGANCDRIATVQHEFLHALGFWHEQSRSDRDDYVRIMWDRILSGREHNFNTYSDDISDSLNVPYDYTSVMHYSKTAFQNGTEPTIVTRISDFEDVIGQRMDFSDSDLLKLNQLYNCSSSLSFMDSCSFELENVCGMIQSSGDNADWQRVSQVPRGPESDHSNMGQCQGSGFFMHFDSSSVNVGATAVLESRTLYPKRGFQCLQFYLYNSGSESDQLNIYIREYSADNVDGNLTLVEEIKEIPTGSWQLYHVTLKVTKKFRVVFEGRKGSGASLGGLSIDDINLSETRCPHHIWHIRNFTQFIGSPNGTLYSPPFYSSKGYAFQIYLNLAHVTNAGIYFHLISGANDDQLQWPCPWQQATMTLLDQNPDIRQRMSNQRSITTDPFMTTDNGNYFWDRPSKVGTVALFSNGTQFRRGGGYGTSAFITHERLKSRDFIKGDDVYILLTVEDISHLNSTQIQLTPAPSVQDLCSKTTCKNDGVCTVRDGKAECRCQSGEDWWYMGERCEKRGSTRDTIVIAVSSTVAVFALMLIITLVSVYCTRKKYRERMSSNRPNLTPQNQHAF
Protocol: as §1, §2, §3

[1] = average IC50, 10 μM substrate, 30° C., 40 mM Tris pH 8.0, read-out: Meprin Beta IC50
[2] = average IC50, 10 μM substrate, 30° C., 40 mM HEPES pH 7.4, read-out: Meprin Alpha IC50
[3] = average Ki, 4 substrate concentrations (5-40 μM), 30° C., 40 mM HEPES pH 7.4, read-out: Meprin Alpha Ki

Row | Ki (hMeprin β) [nM] | IC50 (hMeprin α; [2]) [nM] | Ki (hMeprin α; [3]) [nM] | IC50 (hMeprin β) [µM] | Structure (SMILES) | IC50 (hMeprin α) [nM] | Ki (hMeprin α) [nM] | IC50 (hMeprin β; [1]) [µM]
1 | 158 | 995 | 328 | 0.331 | COc1ccc(CN(CC(=O)NO)Cc2ccc(F)c(O)c2F)cc1 [Example 53, 2-[(2,4-difluoro-3-hydroxy-phenyl)methyl-[(4-methoxyphenyl)methyl]amino]ethanehydroxamic acid] |  |  | 
2 | 271 | 4130 | 1470 | 0.839 | CCOC(=O)c1cccc(CN(CC(=O)NO)Cc2cccc(C(=O)O)c2)c1 [Example 59, 3-[[(3-ethoxycarbonylphenyl)methyl-[2-(hydroxyamino)-2-oxo-ethyl]amino]methyl]benzoic acid] |  |  | 
3 |  | 1520 | 297 | 30.6 | O=C(CN(Cc1ccc2c(c1)OCCO2)Cc1ccc2c(c1)OCCO2)NO [Example 63, 2-[bis(2,3-dihydro-1,4-benzodioxin-6-yl-methyl)amino]ethanehydroxamic acid] |  |  | 
4 |  | 2340 | 696 | 33.1 | N#Cc1cccc(CN(CCC(=O)NO)Cc2cccc(C#N)c2)c1 [Example 70, 3-[bis[(3-cyanophenyl)methyl]amino]-propanehydroxamic acid] |  |  | 
5 |  | 1680 | 612 | 75.5 | O=C(CCN(Cc1ccccc1)Cc1ccccc1)NO [Example 71, 3-(dibenzylamino) propanehydroxamic acid] |  |  | 
6 |  | 1960 | 637 | 21.7 | O=C(CN(Cc1cccnc1)Cc1cccnc1)NO [Example 73, 2-[bis(3-pyridylmethyl)amino]ethanehydroxamic acid] |  |  | 

More lines, now with the values behind:

Row | Structure (SMILES) | Ki (hMeprin β) [nM] | IC50 (hMeprin α; [2]) [nM] | Ki (hMeprin α; [3]) [nM] | IC50 (hMeprin β) [µM] | IC50 (hMeprin α) [nM] | Ki (hMeprin α) [nM] | IC50 (hMeprin β; [1]) [µM]
7 | O=C(CN(Cc1c(F)ccc(O)c1F)Cc1c(F)ccc(O)c1F)NO [Example 49, 2-[bis[(2,6-difluoro-3-hydroxy-phenyl)methyl]-amino]ethanehydroxamic acid] | 1960 |  |  |  | 5600 | 998 | 5.51
8 | O=C(CN(Cc1ccc(F)c(O)c1)Cc1ccc(F)c(O)c1)NO [Example 50, 2-[bis[(4-fluoro-3-hydroxy-phenyl)methyl]-amino]ethanehydroxamic acid] | 352 | 986 | 306 |  |  |  | 1.06
9 | O=C(CN(Cc1cccc(O)c1F)Cc1cccc(O)c1F)NO [Example 51, 2-[bis[(2-fluoro-3-hydroxy-phenyl)methyl]-amino]ethanehydroxamic acid] | 1170 | 1210 | 335 |  |  |  | 2.91
10 | O=C(CN(Cc1ccc(Cl)c(O)c1F)Cc1ccc(Cl)c(O)c1F)NO [Example 52, 2-[bis[(4-chloro-2-fluoro-3-hydroxy-phenyl)-methyl]amino]ethanehydroxamic acid] | 8 |  | 104 |  |  |  | 
11 | CCOC(=O)c1cccc(CN(CC(=O)NO)Cc2cccc(C(=O)OCC)c2)c1 [Example 54, ethyl 3-[[(3-ethoxycarbonylphenyl)methyl-[2-(hydroxyamino)-2-oxo-ethyl]amino]methyl]benzoate] | 1760 | 7270 |  |  |  |  | 94.9
12 | COc1c(F)ccc(CN(CC(=O)NO)Cc2ccc(F)c(OC)c2F)c1F [Example 58, 2-[bis[(2,4-difluoro-3-methoxy-phenyl)methyl]-amino]ethanehydroxamic acid] |  | 2830 | 726 |  |  |  | 18.2
13 | O=C(CN(Cc1ccc(Cl)cc1F)Cc1ccc(Cl)cc1F)NO [Example 60, 2-[bis[(4-chloro-2-fluoro-phenyl)methyl]-amino]ethanehydroxamic acid] |  | 3060 | 838 | 138 |  |  | 
14 | COc1cc(CN(CC(=O)NO)Cc2cc(OC)c(OC)c(OC)c2)cc(OC)c1OC [Example 61, 2-[bis[(3,4,5-trimethoxyphenyl)methyl]-amino]-ethanehydroxamic acid] |  | 5320 | 1180 | 20.1 |  |  | 
15 | COc1c(F)ccc(CN(CCC(=O)NO)Cc2ccc(F)c(OC)c2F)c1F [Example 64, 3-[bis[(2,4-difluoro-3-methoxy-phenyl)methyl]-amino]propanehydroxamic acid] |  | 881 | 332 | 18.7 |  |  | 
16 | COc1cc(CN(CCC(=O)NO)Cc2cc(OC)c(OC)c(OC)c2)cc(OC)c1OC [Example 66, 3-[bis[(3,4,5-trimethoxyphenyl)methyl]amino]-propanehydroxamic acid] |  | 19800 |  | 90 |  |  | 
17 | COc1cc(CN(CC(=O)NO)Cc2cc(OC)c3c(c2)OCO3)cc2c1OCO2 [Example 68, 2-[bis[(7-methoxy-1,3-benzodioxol-5-yl)methyl]amino]ethanehydroxamic acid] | 1820 | 554 | 164 | 4.57 |  |  | 
18 | O=C(CCN(Cc1ccc2c(c1)OCCO2)Cc1ccc2c(c1)OCCO2)NO [Example 69, 3-[bis(2,3-dihydro-1,4-benzodioxin-6-ylmethyl)amino]propanehydroxamic acid] | 3740 | 400 | 117 | 7.59 |  |  | 
19 | O=C(CN(Cc1cccc(OC(F)F)c1)Cc1cccc(OC(F)F)c1)NO [Example 72] |  | 5680 | 2150 |  |  |  | 57
20 | O=C(CCN(Cc1ccc2c(c1)OCO2)Cc1ccc2c(c1)OCO2)NO [Example 74, 3-[bis(1,3-benzodioxol-5-ylmethyl)amino]-propanehydroxamic acid] | 1150 | 150 | 52 |  |  |  | 
